Experimental data as given in patent US20100016256A1, “Taxane Compounds for Treating Eye Disease” (priority 2008, published 2010).
Read-outs that look alike come from different tables or passages of the source.

Experiments:
[1] = test system: viable circulating endothelial cell precursors (CEPs); conditions: mice; for Viable CEPs per microliter of peripheral blood: after 28 days
Procedure: (§1) A group of 6 mice are administered various dosages of the cobalamin-paclitaxel bioconjugate prepared in accordance with Example 1 over a 28-day period. The effects on counts of viable circulating endothelial cell precursors and white blood cells are measured after 28 days.

white blood cells = conditions: mice; for White blood cells per 10^4 peripheral blood cells: after 28 days
Procedure: as §1

[2] = test system: bFGF-stimulated formation of new blood vessel in the Matrigel plug; test: Matrigel plug perfusion in vivo assay; conditions: mice, Matrigel and bFGF; for Matrigel Plug/Plasma Fluorescence Ratio: oral gavage
Procedure: A Matrigel® plug perfusion in vivo assay is performed to determine the anti-angiogenic efficiacy of the cobalamin-paclitaxel bioconjugate (Cob-Pac) of Example 1. The assay uses Matrigel®, a gelatinous protein mixture secreted by mouse tumor cells (BD Biosciences, San Jose, Calif.), to duplicate tissue environments. Matrigel® is liquid at […], but when injected into the animal, forms a solid plug. If a growth vessel stimulant such as basic fibroblast growth factor (bFGF) is mixed with the Matrigel®, the bFGF stimulates the formation of new blood vessel in the plug, which can be monitored in the animal via fluorescence techniques. In the current study, Matrigel® is injected either alone or with bFGF subcutaneously into mice.

[3] = test system: choroidal neovascularization by laser burns on the eye; conditions: rats
Procedure: Groups of 8 rats/dosage group or vehicle are neovascularized by laser burns on the eye. Afterwards, the eye is immediately treated with a cobalamin-paclitaxel bioconjugate prepared in accordance with Example 1 at a dose of 1.5 μg/2 μL, 5.0 μg/2 μL, and 15 μg/2 μL (indicated as B.C. in FIG. 1). The treatment regimen also includes a vehicle and Kenacort Retard® (4% triamcinolone acetonide), as a positive control. Each treatment is scored at 7, 14, and 21 days post-treatment by infusing the eye with fluorescein and scoring the leakage using angiography. A score of 0 indicates no leakage while a score of 3 indicates severe leakage. The results of the test are shown in FIG. 1 as the percentage of […] scoring 3.

[4] = test system: blood vessel lesions of the eye; conditions: rats
Description: In another study, flat mount evaluation of the eyes can be carried out at the end of the study because angiography may not provide a full evaluation of the effect of the drug. At the end of the study, the eyes are removed, histologically processed and all lesions can be seen (including those that can not be detected by angiography).
Groups of 8 rats/dosage group are neovascularized by laser burns, followed by immediate treatment of the eye with a cobalamin-paclitaxel bioconjugate prepared in accordance with Example 1. Dosages used are 1.5 μg/2 μL, 5.0 μg/2 μL, and 15 μg/2 μL. The treatments also include a vehicle and Kenacort Retard® (4% triamcinolone acetonide). After 21 days, the eyes are removed, histologically processed, and the lesion size scored in μm^3.

[5] = paclitaxel conjugated to cobalt atom of cobalamin
[6] = 1.5 mg/kg paclitaxel delivered as bioconjugate
[7] = 2 mg/kg paclitaxel delivered as bioconjugate
[8] = 3 mg/kg paclitaxel delivered as bioconjugate
[9] = 6 mg/kg paclitaxel delivered as bioconjugate
[10] = 30 mg/kg paclitaxel delivered as bioconjugate

CC(=O)O[C@H]1C(=O)[C@@]2(C)C([C@H](OC(=O)c3ccccc3)[C@]3(O)C[C@H](OC(=O)[C@H](OC(=O)C[NH+](C)CC[CH2][Co+][N]4/C5=C(/C)C6=N/C(=C\C7=NC(=C(/C)C8=NC(C(C)C4C(CC(N)=O)C5(C)CCC(=O)NCC(C)OP(=O)([O-])OC4C(CO)OC(n5cnc9cc(C)c(C)cc95)C4O)C(C)(CC(N)=O)C8CCC(N)=O)/C(C)(CC(N)=O)C7CCC(N)=O)C(C)(C)C6CCC(N)=O)[C@@H](NC(=O)c4ccccc4)c4ccccc4)C(C)=C1C3(C)C)[C@]1(OC(C)=O)COC1C[C@@H]2O.[Cl-] (stereo partly drawn) [cobalamin-paclitaxel bioconjugate, Cbl-(CH2)3N(CH3)CH2COO-2′-P7X]
Viable CEPs per microliter of peripheral blood [1, 6]: 0.4 per microliter of peripheral blood
Viable CEPs per microliter of peripheral blood [1, 7]: 0.25 per microliter of peripheral blood
Viable CEPs per microliter of peripheral blood [1, 8]: 0.4 per microliter of peripheral blood
Viable CEPs per microliter of peripheral blood [1, 9]: 0.9 per microliter of peripheral blood
Viable CEPs per microliter of peripheral blood [1, 10]: 1.2 per microliter of peripheral blood
Most effective dose (decrease in viable CEPs) ([1]; 28-day dose study, dose as paclitaxel): about 2 mg/kg
White blood cells per 10^4 peripheral blood cells (white blood cells; [6]): 6700 per 10^4 peripheral blood cells
White blood cells per 10^4 peripheral blood cells (white blood cells; [7]): 6700 per 10^4 peripheral blood cells
White blood cells per 10^4 peripheral blood cells (white blood cells; [8]): 7000 per 10^4 peripheral blood cells
White blood cells per 10^4 peripheral blood cells (white blood cells; [9]): 6700 per 10^4 peripheral blood cells
White blood cells per 10^4 peripheral blood cells (white blood cells; [10]): 8100 per 10^4 peripheral blood cells
Toxicity by white blood cell count (neutropenia) (white blood cells; 28 days, absence of a decrease in white blood cell count): no neutropenia
Effect on growth of new blood vessels in Matrigel plug ([2]; each dose (2, 6, 30 mg/kg), greatest effect at 2 and 6 mg/kg): inhibits the growth of new blood vessels
Matrigel Plug/Plasma Fluorescence Ratio ([2]; 2 mg/kg expressed in paclitaxel units): 0.0007
Matrigel Plug/Plasma Fluorescence Ratio ([2]; 6 mg/kg expressed in paclitaxel units): 0.0005
Matrigel Plug/Plasma Fluorescence Ratio ([2]; 30 mg/kg expressed in paclitaxel units): 0.0011
Anti-angiogenic effect by fluorescein leakage score (FIG. 1) ([3]; after 7 days, intermediate and high doses (5.0 and 15 μg/2 μL)): anti-angiogenic results
Anti-angiogenic effect by fluorescein leakage score (FIG. 1) ([3]; after 14 days, high dose (15 μg/2 μL)): anti-angiogenic benefit
Number of blood vessel lesions (FIG. 2) ([4]; 21 days, 1.5, 5.0 and 15 μg/2 μL): decrease in a concentration dependent manner
Inhibition of new blood vessel growth (lesion study) ([4]; 21 days, high and medium concentrations (15 and 5.0 μg/2 μL)): efficacious in inhibiting new blood vessel growth
water solubility [5]: over 100 mg/ml
